Structures can show the parent of a compound that is named as a salt.

Experimental findings from patent publication US12110282B2, “Thiobenzopyrans and their use in preparation of drugs for treatment of rheumatoid arthritis” (HC SYNTHETIC PHARMACEUTICAL CO., LTD., priority 2020, dated 2024) are described below.

One data set concerns healthy rats. Kind of data set: content of aminotransferase in the serum of healthy rats after oral administration for 15 days. The following applies: for ALT / AST: serum of healthy rats, oral administration for 15 days, n=10. It counts as in vivo. As for the experimental part:
Elevated aminotransferase is a common side effect of Iguratimod. To investigate whether the compounds of the present disclosure have effects on aminotransferase, healthy rats were administered orally the compound of the present disclosure and Iguratimod for 15 days, respectively, and then the content of aminotransferase in the serum of rats was determined.

Data set [1] has as its system adjuvant arthritis (AA) of rats. Kind of data set: anti-arthritic activity in the animal model of adjuvant arthritis (AA) of rats, foot swelling by drainage method. It counts as in vivo. Also noted: key to The average swelling degree before administration (X ± s) / Average swelling degree after administration (X ± s): (toe volume after − before inflammation)/volume before; fraction. To be noted: rat adjuvant arthritis; for The average swelling degree before administration (X ± s): foot swelling degree before administration (baseline); for The average swelling degree before administration (X ± s) / Average swelling degree after administration (X ± s): n=10; for Average swelling degree after administration (X ± s): gavage 50 μg/dose/day for consecutive 5 days. As for the experimental part:
The study on the anti-arthritic activity of the compounds of the present disclosure was conducted based on the animal model of adjuvant arthritis (AA) of rats and on the establishment of adjuvant arthritis of rats. The rats were divided into 14 groups, with 10 rats in each group, and the rats were administered by gavage the compound of the present disclosure, a blank control, and a positive control substance of Iguratimod at a dose of 50 μg/dose/day for consecutive 5 days. A drainage method was used to determine the degree of foot swelling in rats of each group before and after administration, and the degree of foot swelling in rats before and after administration was calculated to determine whether the drug was effective.
Foot swelling degree X=(volume of the toe after inflammation−volume of toe before inflammation)/volume of the toe before inflammation×100%.

For `CS(=O)(=O)Nc1cc2scc(NC=O)c(=O)c2cc1S(=O)(=O)c1ccccc1` [Compound 4, N-(7-(methylsulfonamido)-4-oxo-6-(phenylsulfonyl)-4H-thiobenzopyran-3-yl)carboxamide], in the data set on healthy rats, the ALT amounted to 133 ± 9.04 U/L and the AST worked out at 79 ± 9.82 U/L. The “anti-inflammatory effect compared with Iguratimod” value in data set [1] (conclusion in words) is “better anti-inflammatory effect”. In data set [1], the “The average swelling degree before administration (X ± s)” value came to 0.425 ± 0.0247 and the “Average swelling degree after administration (X ± s)” value was 0.017 ± 0.0305.
`CS(=O)(=O)Nc1cc2scc(NC=O)c(=O)c2cc1Oc1ccccc1` [Compound 1 sodium salt]: in the data set on healthy rats, the ALT turned out to be 129 ± 10.18 U/L and the AST was found to be 76 ± 9.22 U/L. Besides, in data set [1], the “The average swelling degree before administration (X ± s)” value amounted to 0.450 ± 0.0284 and the “Average swelling degree after administration (X ± s)” value is on record as 0.023 ± 0.0306.
For `CS(=O)(=O)Nc1cc2scc(NC=O)c(=O)c2cc1[S+]([O-])c1ccccc1` (stereo not drawn) [Compound 3 potassium salt], in that order: 141 ± 7.89 U/L, 89 ± 8.91 U/L, 0.454 ± 0.0277 and 0.023 ± 0.0330.
Taken in the same sequence, the figures for `CS(=O)(=O)Nc1cc2scc(NC=O)c(=O)c2cc1Sc1ccccc1` [Compound 2 sodium salt] were 104 ± 9.05 U/L, 76 ± 9.56 U/L, 0.448 ± 0.0291 and 0.020 ± 0.0325.
`CS(=O)(=O)Nc1cc2scc(NC=O)c(=O)c2cc1Oc1ccccc1` [Compound 1 potassium salt]: in the data set on healthy rats, the ALT is 126 ± 10.05 U/L and the AST was found to be 78 ± 8.74 U/L. For the same compound, in data set [1], the “The average swelling degree before administration (X ± s)” value is 0.455 ± 0.0279 and the “Average swelling degree after administration (X ± s)” value was 0.020 ± 0.0323.
As for `CS(=O)(=O)Nc1cc2scc(NC=O)c(=O)c2cc1S(=O)(=O)c1ccccc1` [Compound 4 potassium salt], in the data set with healthy rats, the ALT was 132 ± 8.79 U/L and the AST came out at 85 ± 6.87 U/L. In data set [1], the “The average swelling degree before administration (X ± s)” value was 0.418 ± 0.0198 and the “Average swelling degree after administration (X ± s)” value was 0.019 ± 0.0274.
Taken in the same sequence, the figures for `CS(=O)(=O)Nc1cc2scc(NC=O)c(=O)c2cc1Oc1ccccc1` [Compound 1, 3-formamido-7-methylsulfonamido-6-phe noxy-4H-I-thiobenzopyran-4-one] were 125 ± 10.24 U/L, 75 ± 8.22 U/L, 0.453 ± 0.0290 and 0.020 ± 0.0335.
In the data set with healthy rats, `CS(=O)(=O)Nc1cc2occ(NC=O)c(=O)c2cc1Oc1ccccc1` [Iguratimod, 3-formamido-7-methylsulfonamido-6-phenoxy-4H-1-benzopyran-4-one, reference compound] registered an ALT of 173 ± 9.86 U/L and an AST of 145 ± 10.98 U/L. In data set [1], the “The average swelling degree before administration (X ± s)” value came to 0.445 ± 0.0321 and the “Average swelling degree after administration (X ± s)” value is on record as 0.029 ± 0.0389.
Turning to `CS(=O)(=O)Nc1cc2scc(NC=O)c(=O)c2cc1Sc1ccccc1` [Compound 2, 3-formamido-7-methylsulfonamido-6-phenylthio-4H-1-thiobenzopyran-4-one], the “side effects (aminotransferase elevation) compared with Iguratimod” value with healthy rats (healthy rats, oral, conclusion in words) was “further weaker side effects”. In the data set on healthy rats, the ALT came out at 108 ± 9.43 U/L and the AST is 80 ± 9.28 U/L. For the same compound, in data set [1], the “The average swelling degree before administration (X ± s)” value came to 0.430 ± 0.0312 and the “Average swelling degree after administration (X ± s)” value was 0.019 ± 0.0315.
In the data set with healthy rats, `CS(=O)(=O)Nc1cc2scc(NC=O)c(=O)c2cc1[S+]([O-])c1ccccc1` (stereo not drawn) [Compound 3] yielded an ALT of 143 ± 7.83 U/L and an AST of 90 ± 8.76 U/L. Also, in data set [1], the “The average swelling degree before administration (X ± s)” value was found to be 0.449 ± 0.0305 and the “Average swelling degree after administration (X ± s)” value stood at 0.025 ± 0.0339.
For `CS(=O)(=O)Nc1cc2scc(NC=O)c(=O)c2cc1S(=O)(=O)c1ccccc1` [Compound 4 sodium salt], in that order: 130 ± 9.15 U/L, 83 ± 8.09 U/L, 0.435 ± 0.0290 and 0.018 ± 0.0303.
On to `CS(=O)(=O)Nc1cc2scc(NC=O)c(=O)c2cc1Sc1ccccc1` [Compound 2 potassium salt], for which, in the data set with healthy rats, the ALT came out at 109 ± 9.11 U/L and the AST was determined as 77 ± 9.02 U/L. Besides, in data set [1], the “The average swelling degree before administration (X ± s)” value came out at 0.453 ± 0.0290 and the “Average swelling degree after administration (X ± s)” value turned out to be 0.021 ± 0.0335.
For `CS(=O)(=O)Nc1cc2scc(NC=O)c(=O)c2cc1[S+]([O-])c1ccccc1` (stereo not drawn) [Compound 3 sodium salt], in that order: 140 ± 8.83 U/L, 87 ± 9.06 U/L, 0.438 ± 0.0229 and 0.022 ± 0.0333.
